The source of these data is patent publication US20250034216A1, “STEREOSELECTIVE COVALENT LIGANDS FOR ONCOGENIC AND IMMUNOLOGICAL PROTEINS” (The Scripps Research Institute, priority 2021, published 2025).

Common to all, as to experiment: IA-DTB cysteine engagement
Holding throughout (type): binding
Holding throughout (conditions): 22Rv1 cells, 20 μM probe, 1 h, relative to DMSO

One assay concerns the target T1, APOOL_C79 (Homo sapiens, UniProt Q6UXV4).
T1 construct: endogenous in cells; host or cells: 22Rv1
T1 sequence (Q6UXV4 28-268): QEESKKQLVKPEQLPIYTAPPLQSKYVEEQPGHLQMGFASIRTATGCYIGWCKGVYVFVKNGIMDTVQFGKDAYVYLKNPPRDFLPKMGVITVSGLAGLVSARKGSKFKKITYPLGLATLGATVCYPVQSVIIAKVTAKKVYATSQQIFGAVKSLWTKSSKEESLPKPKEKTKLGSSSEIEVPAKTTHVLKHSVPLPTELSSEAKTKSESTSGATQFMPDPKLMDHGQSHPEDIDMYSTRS
An outline of the steps:
(§1)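 In-situ probe treatment of cells; lysate 2 mg/mL, IA-DTB 1 h RT; MeOH/CHCl3 precipitation, DTT/iodoacetamide, trypsin; streptavidin enrichment; TMT labeling, high-pH fractionation. Ratio = TMT reporter intensity / mean DMSO channels, median-normalized.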

The target in another assay is T2, GPAT3_C306 (Homo sapiens, UniProt Q53EU6).
T2 construct: endogenous in cells; host or cells: 22Rv1
T2 sequence (Q53EU6 1-434): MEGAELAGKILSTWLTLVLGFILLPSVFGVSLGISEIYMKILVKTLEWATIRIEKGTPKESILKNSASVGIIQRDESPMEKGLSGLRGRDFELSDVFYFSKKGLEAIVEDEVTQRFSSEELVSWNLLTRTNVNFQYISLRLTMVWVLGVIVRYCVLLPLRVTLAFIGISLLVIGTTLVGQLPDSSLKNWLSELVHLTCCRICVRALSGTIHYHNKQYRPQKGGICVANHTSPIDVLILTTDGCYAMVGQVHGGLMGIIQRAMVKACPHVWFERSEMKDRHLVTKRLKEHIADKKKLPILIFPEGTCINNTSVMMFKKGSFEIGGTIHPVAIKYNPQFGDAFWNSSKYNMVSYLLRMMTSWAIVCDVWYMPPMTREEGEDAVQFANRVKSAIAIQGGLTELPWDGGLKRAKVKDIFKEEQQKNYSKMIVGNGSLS
The essentials: as §1

In a further assay the target is T3, HNRNPLL_C235 (Homo sapiens, UniProt Q8WVV9).
T3 construct: endogenous in cells; host or cells: 22Rv1
T3 sequence (Q8WVV9 1-542): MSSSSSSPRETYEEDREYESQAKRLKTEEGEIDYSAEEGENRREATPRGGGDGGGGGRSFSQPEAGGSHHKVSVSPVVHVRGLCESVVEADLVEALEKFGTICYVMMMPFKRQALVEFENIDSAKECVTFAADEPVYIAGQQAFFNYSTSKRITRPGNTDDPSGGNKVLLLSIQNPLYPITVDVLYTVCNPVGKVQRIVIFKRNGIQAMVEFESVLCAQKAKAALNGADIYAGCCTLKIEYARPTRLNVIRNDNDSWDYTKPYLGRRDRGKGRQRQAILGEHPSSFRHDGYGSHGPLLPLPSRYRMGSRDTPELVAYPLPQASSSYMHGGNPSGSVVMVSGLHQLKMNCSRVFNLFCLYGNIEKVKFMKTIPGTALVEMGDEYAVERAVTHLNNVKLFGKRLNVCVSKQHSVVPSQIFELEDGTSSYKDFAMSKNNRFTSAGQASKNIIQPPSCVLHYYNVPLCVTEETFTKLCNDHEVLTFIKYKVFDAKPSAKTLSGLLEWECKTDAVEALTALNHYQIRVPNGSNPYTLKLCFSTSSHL
An outline of the steps: as §1

The next assay concerns the target T4, LAPTM4A_C23 (Homo sapiens, UniProt Q15012).
T4 construct: endogenous in cells; host or cells: 22Rv1
The essentials: as §1

Each structure is given as a SMILES string.

For the compound `C=CC(=O)N1C[C@@H](c2ccc(Br)cc2)[C@H]1C(=O)Nc1cccc2cccnc12` [MY-1A, (2S,3R)-1-acryloyl-3-(4-bromophenyl)-N-(quinolin-8-yl)azetidine-2-carboxamide], the “% engagement APOOL_C79” value on APOOL_C79 worked out at 54.25%. Moreover, on GPAT3_C306, the “% engagement GPAT3_C306” value was determined as 75.75%. In addition, on HNRNPLL_C235, the “% engagement HNRNPLL_C235” value came out at 15%. In addition, the “% engagement LAPTM4A_C23” value on LAPTM4A_C23 is on record as 67%.

As for `C=CC(=O)N1C[C@H](c2ccc(Br)cc2)[C@@H]1C(=O)Nc1cccc2cccnc12` [MY-1B, (2R,3S)-1-acryloyl-3-(4-bromophenyl)-N-(quinolin-8-yl)azetidine-2-carboxamide], the “% engagement APOOL_C79” value on APOOL_C79 is listed as 73%. For the same compound, at GPAT3_C306, the “% engagement GPAT3_C306” value came out at 81.5%. For the same compound, at HNRNPLL_C235, the “% engagement HNRNPLL_C235” value is reported as 34%. Moreover, the “% engagement LAPTM4A_C23” value on LAPTM4A_C23 stood at 54.5%.

As to `C=CC(=O)N1C[C@H](c2ccc(Br)cc2)[C@H]1C(=O)Nc1cccc2cccnc12` [MY-3A, (2S,3S)-1-acryloyl-3-(4-bromophenyl)-N-(quinolin-8-yl)azetidine-2-carboxamide], the “% engagement APOOL_C79” value at APOOL_C79 stood at 48%. Besides, the “% engagement GPAT3_C306” value on GPAT3_C306 was 57%. Also, the “% engagement HNRNPLL_C235” value on HNRNPLL_C235 was −7.5%. For the same compound, the “% engagement LAPTM4A_C23” value at LAPTM4A_C23 is recorded as 48%.

`C=CC(=O)N1C[C@H](c2ccc(Br)cc2)[C@H]1C(=O)Nc1cccc2cccnc12` [MY-3B, (2S,3S)-1-acryloyl-3-(4-bromophenyl)-N-(quinolin-8-yl)azetidine-2-carboxamide]: the “% engagement APOOL_C79” value on APOOL_C79 amounted to 69%. Moreover, the “% engagement GPAT3_C306” value on GPAT3_C306 amounted to 100%. The “% engagement HNRNPLL_C235” value on HNRNPLL_C235 was 75%. Also, the “% engagement LAPTM4A_C23” value on LAPTM4A_C23 was 72%.
